In patent publication US20120184590A1, “FORMULATIONS OF INDOLE-3-CARBINOL DERIVED ANTITUMOR AGENTS WITH INCREASED ORAL BIOAVAILABILITY” (UNIVERSITY OF KANSAS, priority 2009, published 2012):
Several values for one entry are separate records, joined by “and”; a condition that tells them apart may be missing. Equal values may be shown once. Entries after “also recorded” stand apart in the source; their conditions may differ. Read-outs that look alike come from different tables or passages of the source. Marks after values point to notes of the source that are not given here.

Test: Pharmacokinetics of SR13668 in monkeys after i.v. and oral gavage dosing
Format: in vivo, cynomolgus monkeys (macaca fasicularis)
Settings: for Fabs F/(1-ER): blood; for Vd/F: read-out: VZ/F
Text: Four non-naïve male beagle dogs (approximately 3 years of age; Ridglan Farms Inc. Mt. Horeb, Wis.) and four non-naïve male cynomolgus monkeys [cynos (macaca fasicularis); approximately 7 to 8 years of age; Charles River Laboratories, Inc., Houston, Tex.] were used in this study. Prior to experimental initiation for the present study, the attending veterinarian certified that the animals were healthy and free from disease and parasites.
For both species, each animal was part of each experimental group, with a 7-day interval between treatments to allow for washout of the dosing formulation and its effects. Dosing formulations of SR13668 were administered by oral gavage (intragastric) or intravenous (i.v.) injection as a single dose or once daily for seven consecutive days. Oral to doses were administered at a dosing volume of 5 mL/kg of body weight, while intravenous doses were administered at a dosing volume of 0.5 mL/kg of body weight. Dogs were dosed with 93.6 mg/m^2 SR13668 intravenously in DMSO:PEG300 15:85 (v/v) or orally in Solutol® vehicle (two groups, fed and after an overnight fast). Monkeys were dosed with 84.2 mg/m^2 SR13668 intravenously in DMSO:PEG300 15:85 (v/v) or orally (336.7 mg/m^2 SR13668 for the oral high dose group) in PEG400:Labrasol® 1:1 (v/v) or Solutol® vehicles. Vehicle control groups were used to assess the tolerability of the vehicle and for clinical pathology evaluations.
Blood samples were collected from each animal at 10 time points (0, 0.25, 0.5, 1, 2, 4, 6, 8, 12 and 24 hours post-dose) during the first and last 24-hour segment of each dosing regimen. For single intravenous dose experiments, samples were collected during the 24-hour post-dose period only. Samples were transferred to Vacutainer tubes containing ethylenediaminetetraacetic acid (EDTA; Fisher Scientific, Pittsburgh, Pa.). The tubes were inverted several times to mix and then placed on ice until storage or centrifugation for plasma preparation. After centrifugation, the plasma was transferred into storage tubes (0.5 mL), which were placed on dry ice and then stored frozen (approximately −70° C.).
Levels of SR13668 in plasma and blood were measured using a tandem mass to spectrometer (API 3000; Applied Biosystems/MDS Sciex, Foster City, Calif.) equipped with a high performance liquid chromatograph (Agilent 1200; Agilent Technologies, Wilmington, Del.). For SR13668 determination, a 100 μL blood or plasma aliquot was mixed with 1 mL of acetonitrile (ACN; Sigma-Aldrich, St. Louis, Mo.). After vortex-mixing for one minute, the sample was centrifuged at 4° C. and 7000 RPM for 10 minutes to remove precipitated proteins, and the supernatant was transferred to a clean tube and dried under nitrogen flow at room temperature (approximately 25° C.). After the evaporation was completed, the residue was reconstituted in 500 μL of ACN/water (v/v 70:30), and vortex-mixed and centrifuged again. An aliquot of the resulting supernatant was transferred to an autosampler tube for instrumental analysis.
A freshly prepared SR13668 standard curve was analyzed along with samples on each day of analysis. The chromatographic column was a Luna 3μ C18(2) 110 Å 30×2.0 mm (Phenomenex, Torrance, Calif.). The column temperature was maintained at 25° C., and a flow rate of 0.30 mL/min was used. The mobile phase consisted of MPA: formic acid in water (0.05%, v/v) and MPB: formic acid in ACN (0.05%, v/v). The mobile phase gradient was as follows: after injection, initial conditions with MPA at 40% were held for 0.01 min, decreased to 5% and held constant for 3 min, returning to initial conditions for another 3 min of re-equilibration time. Retention time of SR13668 was approximately 2.4 min. Total run time was 6 min. A turbo ion spray interface was used as the ion source operating in negative ion mode. Acquisition was performed in multiple reaction monitoring mode using ions 429.15 (Q1) and 414.12 (Q3) Dalton. […]

[1] = male, cynomolgus monkey, plasma, iv, 7.02 mg/kg, plasma, 84.2 mg/m^2 (7.02 mg/kg) i.v. single dose, DMSO:PEG300 15:85 v/v, fed
[2] = male, cynomolgus monkey, plasma, po, 7.02 mg/kg, 84.2 mg/m^2 (7.02 mg/kg) oral gavage, Solutol, seventh daily dose, fed
[3] = male, cynomolgus monkey, plasma, po, 7.02 mg/kg, plasma, 84.2 mg/m^2 (7.02 mg/kg) oral gavage, PEG400:Labrasol 1:1 v/v, seventh daily dose, fed
[4] = male, cynomolgus monkey, plasma, po, 28.06 mg/kg, plasma, 336.7 mg/m^2 (28.06 mg/kg) oral gavage, PEG400:Labrasol 1:1 v/v, seventh daily dose, fed
[5] = male, cynomolgus monkey, whole blood, iv, 7.02 mg/kg, whole blood, 84.2 mg/m^2 (7.02 mg/kg) iv single dose, DMSO:PEG300 15:85 v/v, fed
[6] = male, cynomolgus monkey, whole blood, po, 7.02 mg/kg, 84.2 mg/m^2 (7.02 mg/kg) oral gavage, Solutol, seventh daily dose, fed
[7] = male, cynomolgus monkey, whole blood, po, 7.02 mg/kg, whole blood, 84.2 mg/m^2 (7.02 mg/kg) oral gavage, PEG400:Labrasol 1:1 v/v, seventh daily dose, fed
[8] = male, cynomolgus monkey, whole blood, po, 28.06 mg/kg, whole blood, 336.7 mg/m^2 (28.06 mg/kg) oral gavage, PEG400:Labrasol 1:1 v/v, seventh daily dose, fed
[9] = male, cynomolgus, cynomolgus monkey, plasma, iv, 7.02 mg/kg, plasma, 84.2 mg/m^2 (7.02 mg/kg) i.v. single dose, DMSO:PEG300 15:85 v/v, fed
[10] = male, cynomolgus, cynomolgus monkey, plasma, po, 7.02 mg/kg, plasma, 84.2 mg/m^2 (7.02 mg/kg) oral gavage, PEG400:Labrasol 1:1 v/v, seventh daily dose, fed
[11] = plasma, 84.2 mg/m^2 (7.02 mg/kg) i.v. single dose, DMSO:PEG300 15:85 v/v, fed
[12] = whole blood, 84.2 mg/m^2 (7.02 mg/kg) iv single dose, DMSO:PEG300 15:85 v/v, fed

## CCOC(=O)c1ccc2[nH]c3c(OC)c4[nH]c5ccc(C(=O)OCC)cc5c4cc3c2c1 [SR13668, 2,10-dicarbethoxy-6-methoxy-5,7-dihydro-indolo-(2,3-b)carbazole]
PEG400:Labrasol, 84.2 vs 336.7 mg/m^2
  effect of fourfold dose increase on oral bioavailability: about a fourfold decrease in the bioavailability; also recorded: lower oral bioavailability
Blood clearance, 84.2 mg/m^2 (7.02 mg/kg) oral gavage, PEG400:Labrasol 1:1 v/v, fed
  CL: 121 mL/min/kg
Blood clearance, 84.2 mg/m^2 (7.02 mg/kg) oral gavage, Solutol, fed
  CL: 47.7 mL/min/kg
Blood clearance, 336.7 mg/m^2 (28.06 mg/kg) oral gavage, PEG400:Labrasol 1:1 v/v, fed
  CL: 332 mL/min/kg
84.2 mg/m^2 (7.02 mg/kg) oral gavage, PEG400:Labrasol 1:1 v/v, fed
  Fabs F/(1-ER): 4.1%
84.2 mg/m^2 (7.02 mg/kg) oral gavage, Solutol, fed
  Fabs F/(1-ER): 9.1%
336.7 mg/m^2 (28.06 mg/kg) oral gavage, PEG400:Labrasol 1:1 v/v, fed
  Fabs F/(1-ER): 1.2%
Iv blood clearance over hepatic blood flow 43.6 mL/min/kg
  ER CLiv/Q: 0.083
[1]
  AUC(0-inf): 13300 ± 4920 ng·h/mL
  Cmax: 6090 ± 1080 ng/mL
  MRT: 6.9 ± 1.1 h
[2]
  AUC(0-inf): 837 ± 144 ng·h/mL
  Cmax: 71.4 ± 16 ng/mL
  MRT: 12.8 ± 2.1 h
  Tmax: 8 ± 3.3 h
[3]
  AUC(0-inf): 437 ± 312 ng·h/mL
  Cmax: 40.5 ± 38 ng/mL
  MRT: 11.6 ± 1.3 h
  Vd/F: 203 ± 130 L/kg
male, cynomolgus monkey, plasma, po, 7.02 mg/kg, plasma, 84.2 mg/m^2 (7.02 mg/kg) oral gavage, PEG400:Labrasol 1:1 v/v, seventh daily dose, fed, read-out: CL/F (converted)
  CL/F: 372 mL/min/kg
male, cynomolgus monkey, plasma, po, 7.02 mg/kg, plasma, 84.2 mg/m^2 (7.02 mg/kg) oral gavage, Solutol, seventh daily dose, fed, read-out: CL/F (converted)
  CL/F: 143 mL/min/kg
male, cynomolgus monkey, plasma, po, 7.02 mg/kg, plasma, 84.2 mg/m^2 (7.02 mg/kg) oral gavage, Solutol, seventh daily dose, fed
  Vd/F: 90.5 ± 9.9 L/kg
[4]
  AUC(0-inf): 367 ± 154 ng·h/mL
  Cmax: 43.7 ± 9.2 ng/mL
  MRT: 9.1 ± 2.4 h
  Tmax: 3.5 ± 1.9 h
  Vd/F: 603 ± 236 L/kg
male, cynomolgus monkey, plasma, po, 28.06 mg/kg, plasma, 336.7 mg/m^2 (28.06 mg/kg) oral gavage, PEG400:Labrasol 1:1 v/v, seventh daily dose, fed, read-out: CL/F (converted)
  CL/F: 1440 mL/min/kg
[5]
  AUC(0-inf): 35400 ± 12400 ng·h/mL
  Cmax: 11100 ± 776 ng/mL
  MRT: 9 ± 2.2 h
  Tmax: 0.25 h
  half-life: 8.6 ± 1.7 h
[6]
  AUC(0-inf): 2490 ± 377 ng·h/mL
  Cmax: 227 ± 56 ng/mL
  MRT: 13.3 ± 1.1 h
  Tmax: 6.5 ± 3.8 h
  half-life: 7.7 ± 0.6 h
[7]
  AUC(0-inf): 1560 ± 1330 ng·h/mL
  Cmax: 129 ± 140 ng/mL
  MRT: 11.5 ± 1.2 h
  Tmax: 7 ± 0.35 h
  half-life: 5.8 ± 0.9 h
  Vd/F: 61.4 ± 44 L/kg
male, cynomolgus monkey, whole blood, po, 7.02 mg/kg, whole blood, 84.2 mg/m^2 (7.02 mg/kg) oral gavage, PEG400:Labrasol 1:1 v/v, seventh daily dose, fed, read-out: CL/F (converted)
  CL/F: 121 mL/min/kg
male, cynomolgus monkey, whole blood, po, 7.02 mg/kg, whole blood, 84.2 mg/m^2 (7.02 mg/kg) oral gavage, Solutol, seventh daily dose, fed, read-out: CL/F (converted)
  CL/F: 47.7 mL/min/kg
male, cynomolgus monkey, whole blood, po, 7.02 mg/kg, whole blood, 84.2 mg/m^2 (7.02 mg/kg) oral gavage, Solutol, seventh daily dose, fed
  Vd/F: 31.6 ± 5 L/kg
[8]
  AUC(0-inf): 1520 ± 445 ng·h/mL
  Cmax: 168 ± 35 ng/mL
  MRT: 10.9 ± 2.2 h
  Tmax: 3.5 ± 1.9 h
  half-life: 6.8 ± 1.2 h
  Vd/F: 195 ± 73 L/kg
male, cynomolgus monkey, whole blood, po, 28.06 mg/kg, whole blood, 336.7 mg/m^2 (28.06 mg/kg) oral gavage, PEG400:Labrasol 1:1 v/v, seventh daily dose, fed, read-out: CL/F (converted)
  CL/F: 332 mL/min/kg
[9]
  Tmax: 0.25 h
  half-life: 7.6 ± 0.8 h
male, cynomolgus, cynomolgus monkey, plasma, po, 7.02 mg/kg, 84.2 mg/m^2 (7.02 mg/kg) oral gavage, Solutol, seventh daily dose, fed
  half-life: 7.4 ± 0.7 h
[10]
  Tmax: 5 ± 1.2 h
  half-life: 6 ± 1.3 h
male, cynomolgus, cynomolgus monkey, plasma, po, 28.06 mg/kg, plasma, 336.7 mg/m^2 (28.06 mg/kg) oral gavage, PEG400:Labrasol 1:1 v/v, seventh daily dose, fed
  half-life: 5 ± 1.2 h
male, cynomolgus, cynomolgus monkey, whole blood, blood clearance, 84.2 mg/m^2 (7.02 mg/kg) iv, DMSO:PEG300 15:85 v/v, fed
  clearance: 3.63 mL/min/kg
[11]
  CL/F: 0.580 ± 0.20^c,d L/hr/kg
  F0-∞: 100%
plasma, 84.2 mg/m^2 (7.02 mg/kg) oral gavage, PEG400:Labrasol 1:1 v/v, seventh daily dose, fed
  F0-∞: 3.3 ± 2.0^f %
plasma, 84.2 mg/m^2 (7.02 mg/kg) oral gavage, Solutol, seventh daily dose, fed
  F0-∞: 7.3 ± 2.9^i %
plasma, 336.7 mg/m^2 (28.06 mg/kg) oral gavage, PEG400:Labrasol 1:1 v/v, seventh daily dose, fed
  F0-∞: 0.72 ± 0.28^i %
[12]
  CL/F: 0.218 ± 0.078^c,d,h L/hr/kg
  F0-∞: 100%
Whole blood, 84.2 mg/m^2 (7.02 mg/kg) oral gavage, PEG400:Labrasol 1:1 v/v, seventh daily dose, fed
  F0-∞: 3.8 ± 3.1^e,h % and 3.8%
Whole blood, 84.2 mg/m^2 (7.02 mg/kg) oral gavage, Solutol, seventh daily dose, fed
  F0-∞: 8.3 ± 3.1^e,h,i % and 8.3%
Whole blood, 336.7 mg/m^2 (28.06 mg/kg) oral gavage, PEG400:Labrasol 1:1 v/v, seventh daily dose, fed
  F0-∞: 1.1 ± 0.44^h % and 1.1%
